This is an account of results in article PMC9458978, “Design, synthesis and biological evaluation of novel biphenylsulfonamide derivatives as selective AT2 receptor antagonists” (Frontiers in Chemistry, 2022).

One may read the melting point as the temperature, or range, at which the solid turns liquid. Usually Ki stands for a measure of affinity in units of concentration, obtained from inhibition or displacement.

Read-outs that look alike come from different tables or passages of the source.

Data set [1] addresses T1, AT2 receptor (Homo sapiens, UniProt P50052).
T1 construct: expressed in transfected cells; host or cells: HEK-293
T1 sequence (P50052 1-363): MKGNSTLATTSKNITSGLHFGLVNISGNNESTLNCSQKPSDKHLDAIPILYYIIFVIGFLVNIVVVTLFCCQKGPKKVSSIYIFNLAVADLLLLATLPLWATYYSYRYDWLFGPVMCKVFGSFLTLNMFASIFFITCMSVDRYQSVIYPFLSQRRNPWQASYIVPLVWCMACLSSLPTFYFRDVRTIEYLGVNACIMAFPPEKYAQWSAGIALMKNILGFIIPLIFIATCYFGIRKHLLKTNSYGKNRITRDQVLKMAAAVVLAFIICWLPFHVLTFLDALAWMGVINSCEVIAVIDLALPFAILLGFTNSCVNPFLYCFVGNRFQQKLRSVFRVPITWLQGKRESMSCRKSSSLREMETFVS
Kind of data set: HEK-293 cell AT2 receptor binding assay ([125I]-CGP42112 displacement, HEK293-hAT2R). As to the method: All of above methods were widely accepted and used to evaluate the binding activity of AT1 and AT2 receptors.
The lysis solution was mixed and centrifuged at 12,000 g for 10 min at 4°C. Details are shown in the Supplementary Material.
After HEK-293 cells were transfected with AT2 receptor, lysis buffer (150 mM NaCl, 0.1% Triton X-100, 50 mM Tris-HCl, 1 mM EDTA, protease inhibitor) was used to separate the cell membrane of HEK-293 cells[2],using 27-G Resuspend and mix the lysis solution, and centrifuge at 12,000 g for 10 minutes at 4 °C. The supernatant was collected and centrifuged for a further 60 minutes. The precipitated membrane extracts were buffered (150 mM NaCl, 10 mM MgCl2, 0.5 % SDS, 1 % Triton X-100, 50 mM Tris-Cl, 1 mM EDTA, protease inhibitor ) for resuspension. […]
mL containing 50 mM Tris-HCl (pH 7.4), 100 mM NaCl, 10 mM MgCl2, 1 mM […]
cpm, 0.03 nM), and variable concentrations of test substance. Samples were incubated at 25 ℃ for 2 h, and binding was terminated by filtration through Whatman GF/B glass-fiber filter sheets, which had been presoaked overnight with 0.3 % polyethylamine, using a Brandel cell harvester. The filterswere washed with 3×3 mL of Tris-HCl (pH 7.4) and transferred to tubes. The radioactivity was measured in a γ-counter. The characteristics of the Ang II binding AT1 receptor was determined by […]
Nonspecific binding was determined in the presence of 1 µM Ang II.The specific binding was determined by subtracting the nonspecific binding from the total bound The apparent dissociation constant Ki values were calculated from IC50 values using the Cheng-Prusoff equation. […]
(§1) one-site fit.All determinations were performed in triplicate. […]

The target in the next data set is T2, AT1 receptor (Rattus norvegicus, UniProt P25095).
T2 construct: Rat liver membranes were prepared according to the method of Dudley et al; from tissue; host or cells: rat liver membranes
Kind of data set: Rat liver membrane AT1 receptor binding assay ([125I]-Ang II displacement). Particulars: displacement of [125I]-Ang II, rat liver membranes; means ± SE, triplicate; read-out: Ki (nM) AT1R. As for the experimental part: The target compounds were evaluated for AT1 receptor binding affinity by displacement of [^125I]-Ang II from the AT1 receptor in rat liver membranes. The radio-iodinated AT2 receptor selective ligand [^125I]-CGP42112 was used to study AT2 receptor binding affinity in HEK-293 cells (HEK293-hAT2R) ([Dudley et al., 1990]; [Whitebread et al., 1991]). All of above methods were widely accepted and used to evaluate the binding activity of AT1 and AT2 receptors.
Rat liver membranes were prepared according to the method of Dudley et al ([Dudley et al., 1990]). After HEK-293 cells were transfected with the AT2 receptor, a lysis buffer was used to separate the cell membrane of HEK-293 cells ([Grieger et al., 2016]), using 27-G Resuspend. The lysis solution was mixed and centrifuged at 12,000 g for 10 min at 4°C. Details are shown in the Supplementary Material.
3. Radioligand binding assay steps
3.1 Rat Liver Membrane AT1 Receptor Binding Assay.
Rat liver membranes were prepared according to the method of Dudley et al[1].
Binding of [125I]-Ang II to membranes was conducted in a final volume of 0.5 mL containing 50 mM Tris-HCl (pH 7.4), 100 mM NaCl, 10 mM MgCl2, 1 mM EDTA, 0.025% bacitracin, 0.2% BSA (bovine serum albumin), liver homogenate corresponding to 5 mg of the original tissue weight, [125I]-Ang II (80000-85 000 cpm, 0.03 nM), and variable concentrations of test substance. Samples were incubated at 25 ℃ for 2 h, and binding was terminated by filtration through Whatman GF/B glass-fiber filter sheets, which had been presoaked overnight with 0.3 % polyethylamine, using a Brandel cell harvester. The filterswere washed with 3×3 mL of Tris-HCl (pH 7.4) and transferred to tubes. The radioactivity was measured in a γ-counter. The characteristics of the Ang II binding AT1receptor was determined by using six different concentrations (0.03-5 nmol/L) of the labeled [125I]-Ang II.
Nonspecific binding was determined in the presence of 1 µM Ang II.The specific binding was determined by subtracting the nonspecific binding from the total bound [125I]-Ang II.The apparent dissociation constant Ki values were calculated from IC50 values using the Cheng-Prusoff equation. […]
as §1

The test system of data set [2] is AT2 receptor. Kind of data set: Neurite outgrowth assay with NG108-15 cells (AT2 receptor function assay). As for the experimental part: The ratio of cell neurite outgrowth was used to evaluate, and the details are shown in the Supplementary Material.
NG108-15 cells (China Center for Type Culture Collection CCTCC) were used to study the in vitro morphological effects. In their undifferentiated state, neuroblastoma × glioma hybrid NG108-15 cells havea rounded shape and divide actively. The cells were cultured from passage 18–25 in Dulbecco’s modified Eagle’s medium (DMEM, Gibco BRL, Thermo Fisher Technology (China) Co., Ltd, China) with 10% fetal bovine serum (FBS, Gibco), HAT supplement and 50 mg L^−1 gentamycin at 37°C in 75 cm^2 Nunclon Delta flasks in a humidified atmosphere of 95% air and 5% CO2, as previously described ([Buisson et al., 1992]). Subcultures were performed at subconfluency. Under these conditions, cells express mainly the AT2 receptor subtype ([Whitebread et al., 1991]). Cells were treated during 3 days, once a day (first treatment 24 h after plating), and micrographs were taken on the fourth day. The details of experimental grouping and administration method are shown in the Supplementary Material. […]
4. NG108-15 cell experiment steps […]
peptidic AT2 receptor agonist CGP-42112A induces neurite outgrowth. The […]
plated as described in the Experimental Section, and adequate test concentrations for […]
each compound were determined by testing a dilution series of each compound […]
ranging from 1 pM to 1 uM.
The chemicals used in the present study were obtained from the following sources: Dulbecco’s modified Eagle’s medium (DMEM), heat-inactivated fetal bovine serum (FBS), HAT supplement (hypoxanthine, aminopterin, thymidine), gentamycin from Gibco BRL (Burlington, Ontario, Canada), and Ang II from MedChemExpress

T2 sequence (P25095 whole entry): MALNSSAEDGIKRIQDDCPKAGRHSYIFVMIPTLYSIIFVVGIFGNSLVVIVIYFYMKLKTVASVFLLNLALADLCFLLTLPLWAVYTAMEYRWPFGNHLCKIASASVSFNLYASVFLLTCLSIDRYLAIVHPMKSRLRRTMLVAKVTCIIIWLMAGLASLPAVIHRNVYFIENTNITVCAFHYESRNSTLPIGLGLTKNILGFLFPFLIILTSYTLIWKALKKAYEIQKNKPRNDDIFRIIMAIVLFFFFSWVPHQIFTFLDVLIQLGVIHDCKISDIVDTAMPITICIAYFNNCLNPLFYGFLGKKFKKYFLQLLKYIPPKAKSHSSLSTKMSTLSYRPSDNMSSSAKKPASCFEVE

In the case of `CCCCC(=O)NS(=O)(=O)c1ccc(CCCC)cc1-c1cccc(Cn2cncn2)c1` [8e, N-((3'-((1H-1,2,4-triazol-1-yl)methyl)-5-butyl-[1,1′-biphenyl]-2-yl)sulfonyl)pentanamide], the melting point lay within 141.8 to 142.4 °C. The molecule also gave a Ki on AT2 receptor [1] of 753.9 ± 1.1 nM. Moreover, the Ki at AT1 receptor came to 505.2 ± 1.4 nM.

Turning to `Cc1cc(Cn2cnc3c2C[C@@H](C(=O)O)N(C(=O)C(c2ccccc2)c2ccccc2)C3)ccc1N(C)C` [PD-123,319, reference compound], in the data set on AT2 receptor [2] (PD-123,319 alone), the “morphology compared to untreated cells” value is “did not alter”.

Molecule `CCCCOC(=O)NS(=O)(=O)c1ccc(CC(C)C)cc1-c1cccc(Cn2cccn2)c1` [9b, Butyl((3'-((1H-pyrazol-1-yl)methyl)-5-isobutyl-[1,1′-biphenyl]-2-yl)sulfonyl)carbamate] registered a melting point of 129.1 to 131.4 °C. In addition, the inhibition constant (Ki) at AT2 receptor [1] (displacement of [125I]-CGP42112, HEK293-hAT2R membranes, means ± SE, triplicate, read-out: Ki (nM) AT2R) stood at 1027 ± 1.15 nM. Moreover, the Ki at AT1 receptor is 989.7 ± 1.08 nM.

With `CCCCc1ccc(S(=O)(=O)NC(=O)OCC(C)C)c(-c2cccc(Cn3cncn3)c2)c1` [8g, Isobutyl((3'-((1H-1,2,4-triazol-1-yl)methyl)-5-butyl-[1,1′-biphenyl]-2-yl)sulfonyl)carbamate], the melting point lay within 168.4 to 169.1 °C. The molecule also yielded a Ki at AT2 receptor [1] of 347.5 ± 1.36 nM. Moreover, the inhibition constant (Ki) at AT1 receptor worked out at 945.5 ± 1.22 nM.

With `CC(C)COC(=O)NS(=O)(=O)c1ccc(CC(C)C)cc1-c1cccc(Cn2cncn2)c1` [8c, Isobutyl((3'-((1H-1,2,4-triazol-1-yl)methyl)-5-isobutyl-[1,1′-biphenyl]-2-yl)sulfonyl)carbamate], the melting point fell in the range of 145.3 to 146.2 °C. On AT2 receptor [1], this molecule displayed a Ki of 322 ± 1.24 nM. For the same molecule, on AT1 receptor, the Ki stood at 1037 ± 1.1 nM.

Molecule `CCCCOC(=O)NS(=O)(=O)c1ccc(CCCC)cc1-c1cccc(Cn2cncn2)c1` [8f, Butyl((3'-((1H-1,2,4-triazol-1-yl)methyl)-5-butyl-[1,1′-biphenyl]-2-yl)sulfonyl)carbamate] had a melting point of 150.1 to 151.4 °C. The same molecule registered a Ki at AT2 receptor [1] of 252.7 ± 1.2 nM. The Ki on AT1 receptor worked out at 1425 ± 1.12 nM.

As to `CCCCOC(=O)NS(=O)(=O)c1ccc(CC(C)C)cc1-c1cccc(Cn2cncn2)c1` [8b, ((3'-((1H-1,2,4-triazol-1-yl)methyl)-5-isobutyl-[1,1′-biphenyl]-2-yl)sulfonyl)carbamae], the melting point is 148.1 to 149.3 °C. On AT2 receptor [1], this molecule yielded a Ki of 273.5 ± 1.2 nM. For the same molecule, the Ki on AT1 receptor is 846.1 ± 1.17 nM.

The molecule `CCCCC(=O)NS(=O)(=O)c1ccc(CC(C)C)cc1-c1cccc(Cn2cccn2)c1` [9a, N-((3'-((1H-pyrazol-1-yl)methyl)-5-isobutyl-[1,1′-biphenyl]-2-yl)sulfonyl)pentanamide] displayed a melting point of 125.8 to 126.7 °C. This molecule came in with a Ki on AT2 receptor [1] of 1152 ± 1.1 nM. Further, the Ki on AT1 receptor came out at 1264 ± 1.14 nM.

The molecule `CCCCC(=O)NS(=O)(=O)c1ccc(CC(C)C)cc1-c1cccc(Cn2cncn2)c1` [8a, N-((3'-((1H-1,2,4-triazol-1-yl)methyl)-5-isobutyl-[1,1′-biphenyl]-2-yl)sulfonyl)pentanamide] registered a melting point of 138.4 to 139.7 °C. On AT2 receptor [1], the affinity, expressed as Ki, was 873.7 ± 1.1 nM. On AT1 receptor, the inhibition constant Ki stood at 629.4 ± 1.1 nM.

Molecule `CC(C)Cc1ccc(S(=O)(=O)NC(=O)OC(C)C)c(-c2cccc(Cn3cccn3)c2)c1` [9d, Isopropyl((3'-((1H-pyrazol-1-yl)methyl)-5-isobutyl-[1,1′-biphenyl]-2-yl)sulfonyl)carbamate] gave a melting point of 146.6 to 147.5 °C. Also, the Ki on AT2 receptor [1] came out at 74.1 ± 1.16 nM. Also, the Ki on AT1 receptor is 1549 ± 1.11 nM.

`CCCCc1ccc(S(=O)(=O)NC(=O)OCC(C)C)c(-c2cccc(Cn3cccn3)c2)c1` [9g, Isobutyl((3'-((1H-pyrazol-1-yl)methyl)-5-butyl-[1,1′-biphenyl]-2-yl)sulfonyl)carbamate] registered a melting point of 149.3 to 151.2 °C. In addition, the affinity on AT2 receptor [1] corresponds to a Ki of 513.3 ± 1.18 nM. Moreover, at AT1 receptor, the Ki amounted to 1212 ± 1.12 nM.

Take `CC(C)COC(=O)NS(=O)(=O)c1ccc(CC(C)C)cc1-c1cccc(Cn2cccn2)c1` [9c, Isobutyl((3'-((1H-pyrazol-1-yl)methyl)-5-isobutyl-[1,1′-biphenyl]-2-yl)sulfonyl)carbamate]: the melting point was 149.6 to 151.3 °C. This molecule showed a Ki at AT2 receptor [1] of 916.2 ± 1.3 nM. Also, the Ki at AT1 receptor is 1027 ± 1.08 nM.

As for `CCCCOC(=O)NS(=O)(=O)c1ccc(CCCC)cc1-c1cccc(Cn2cccn2)c1` [9f, Butyl((3'-((1H-pyrazol-1-yl)methyl)-5-butyl-[1,1′-biphenyl]-2-yl)sulfonyl)carbamate], the melting point is 142.5 to 143.1 °C. The Ki on AT2 receptor [1] stood at 467.9 ± 1.19 nM. Also, at AT1 receptor, the Ki came to 1310 ± 1.11 nM.

Ang II [reference compound]: in the data set on AT2 receptor [2] (3-day treatment, substance alone (Ang II 100 nM; compounds 10 or 100 nM)), the “ratio of cell neurite outgrowth (cells with neurites as percentage of total cells)” value was about 20%.

On to `CCCCC(=O)NS(=O)(=O)c1ccc(CCCC)cc1-c1cccc(Cn2cccn2)c1` [9e, N-((3'-((1H-pyrazol-1-yl)methyl)-5-butyl-[1,1′-biphenyl]-2-yl)sulfonyl)pentanamide], for which the melting point was in the range of 140.1 to 141.3 °C. Moreover, the affinity on AT2 receptor [1], expressed as Ki, was 992.9 ± 1.26 nM. Moreover, the Ki on AT1 receptor is 363.9 ± 1.28 nM.
